Results from US11365450B2, “Group classification and prognosis prediction system based on biological characteristics of gastric cancer” (Novomics Co., Ltd., priority 2017, dated 2022).
Entries after “also recorded” stand apart in the source; their conditions may differ.

Legend:
Assay type in all cases: cell-based, Human
Hs746T cells [1] = test: in vitro scratch wound-healing (migration) assay; conditions: LY2157299 50 μM; wound width after 72 hours
Experimental: Migration assay: Hs746T and NCI-N87 cells were grown into monolayers in a culture medium containing 10% FBS and 1% antibiotics. When confluency reached 70%, the cell monolayers were scratched with a 100-μl pipette tip. After 72 hours, the wound width was measured and normalized by the wound width measured immediately after scratching. LY2157299 (50 μM) was administered to evaluate the effect of the TGF-β inhibitor on cell migration.

Hs746T cells [2] = test: invasion assay (HUVEC monolayer transwell); conditions: LY2157299 50 μM; 48 hours incubation
Experimental: Invasion assay: For the assay, 2×10^4 HUVEC cells were placed in a culture medium (M199) in a fibronectin-coated transwell, followed by coating the bottom of the transwell with 0.2% gelatin and cell culture for 48 hours until monolayer formation. Thereafter, 1×10^5/50 μl Hs746T and NCI-N87 cells containing FBS-free CellTracker™ (Molecular Probes, C2925) were separately added to the transwell. A culture medium containing 10% FBS was added to the lower chamber. After incubation for 48 hours, upper cells of the membrane were removed using a cotton swab. Cells on the lower membrane were lysed in 200 μl of a lysis buffer at room temperature for 2 hours to 3 hours. Fluorescence was measured with Ex/Em 492/517. To examine the effect of a TGF-β inhibitor on cell invasion ability, 50 μM of LY2157299 (AdooQ, California, USA) was administered.

Hs746T cells [3] = test: in vitro tumor spheroid formation assay; conditions: LY2157299 50 μM; 30 days of cell culture
Experimental: Tumor spheroid formation assay: Ten cells were cultured in 50 μl of DMEM/F12 (Gibco) supplemented with bFGF, EGF, B27, 10% FBS, and 1% antibiotics in a 96-well plate. After 30 days of cell culture, the number of tumor spheroids in each well was counted. In addition, LY2157299 (50 μM) was administered to examine the effect of the TGF-β inhibitor on tumor sphere formation.

Cc1cccc(-c2nn3c(c2-c2ccnc4ccc(C(N)=O)cc24)CCC3)n1 [LY2157299]
delayed; also recorded: suppression: wound-healing ability of Hs746T cells (Hs746T cells [1]) | invasion ability of Hs746T cells (Hs746T cells [2]) | 3D spheroid formation ability of Hs746T cells (Hs746T cells [3])
